Results: EP1577294A1, “S-SUBSTITUTED N-1- (HETERO)ARYL ALKYL-N - (HETERO)ARYL ALKYLYSOTHIOCARBAMIDES, METHOD FOR THE PRODUCTION THEREOF, PHYSIOLOGICALLY ACTIVE S-SUBSTITUTED N-1- (HETERO )ARYL ALKYL-N - (HETERO)ARYL ALKYLYSOTHIOCARBAMIDES,A PHARMACEUTICAL COMPOUND AND CURING METHOD” (Institut Fiziologicheski Aktivnykh Veschestv Rossiyskov …, priority 2002, dated 2004)
Blank lines part the entries; values can stand above or below the compound they belong to.

Columns and labels:
AMPA/KA receptors = experiment: Patch-clamp: potentiation of kainate-induced transmembrane currents in freshly isolated Purkinje neurons; type: cell-based, rat; details: for Potentiation of kainate-induced currents (%): Purkinje neurons of the rat cerebellum
Method: (§1) The first was to determine the potentiating effect of new compounds on AMPA- and kainate-induced transmembrane currents in neurons of the Purkinje cerebellum of rats, and also blockade of NMDA-induced currents in the neurons of the cerebral cortex of rats;
(§2) Method for assessing properties of the compounds potentiating AMPA/KA-induced currents and blocking NMDA-induced currents.
The experiments were performed using the patch-clamp method on freshly-isolated Purkinje neurons taken from the cerebellum of rats (aged 14-16 days). A modified method was used for isolation. Slices of cerebellum 400-600 µm in thickness were placed in a thermostat-controlled chamber with a volume of 10 ml. The solution for isolation had the following composition (in mM): NaCl 150.0, KCl 5.0, CaCl2 2.0, MgSO4×7H2O 2.0, HEPES 10.0, glucose 15.0, pH 7.42. The slices were incubated in this solution for 60 minutes, after which this solution was replaced by a similar solution containing pronase (2 mg/ml) and collagenase (1 mg/ml) and incubation was continued for 70 minutes. After washing with the original solution for 20 minutes, the slices were placed in a Petri dish and dissociated mechanically with the aid of a Pasteur pipette. The solutions were continuously bubbled with 100% O2 at t° 34°C. The Purkinje neurons were placed in a working chamber with a volume of 0.6 ml. The working solution has the composition (in mM): NaCl 150.0, KCl 5.0, CaCl2 2.6, MgSO4×7H2O 2.0, HEPES 10.0, glucose 15.0, pH 7.36.
(§3) Transmembrane currents were induced by activation of AMPA/KA receptors by applying solutions of kainic acid, the agonist of these receptors, and by activation of NMDA receptors by applying solutions of N-methyl-D-aspartic acid (NMDA), the agonist of these receptors, using the rapid superfusion method. Currents were recorded with the aid of borosilicate microelectrodes (resistance 1.5-2.5 mohm) filled with the following composition (in mM): KCl 100.0, EGTA 11.0, CaCl2 1.0, MgCl2 1.0, HEPES 10.0, ATP 5.0, pH 7.2.
(§4) An EPC9 (HEKA, Germany) was used for recording. Currents were recorded on a Pentium-100 PC hard disc using the Pulse program, also purchased from the HEKA company. The results were processed with the aid of the Pulsefit program (HEKA).
The application of kainate induces inward transmembrane currents in the Purkinje neurons. Addition of the compounds to the perfusion solution elicits an increase in the amplitude of the currents. This increase depends on the compound, on its concentration, and on the time which has passed since the start of application of the substance.

NMDA receptors = experiment: Patch-clamp: blockade of NMDA-induced currents in cerebral cortex neurons; type: cell-based, rat; details: for Blockade of NMDA-induced currents (%): neurons of the cerebral cortex
Excerpt: as §1, §2, §3, §4

Compound: CSC(=NCc1ccccc1)NCc1ccccc1 [Compound 11, S-Methyl-N-benzyl-N'-benzylisothio-carbamide]
Potentiation of kainate-induced currents (%) (AMPA/KA receptors; at 0.5-30 µM): 0 at 0.5-30 µM %
Blockade of NMDA-induced currents (%) (NMDA receptors; at 0.5-30 µM): 0 at 0.5-30 µM %

Compound: CCSC(=NCc1ccccc1)NCc1ccccc1.I [Compound 12, S-Ethyl-N-benzyl-N'-benzylisothiocarbamide hydriodide]
Potentiation of kainate-induced currents (%) (AMPA/KA receptors; at 0.5-30 µM): 0 at 0.5-30 µM %
Blockade of NMDA-induced currents (%) (NMDA receptors; at 0.5-30 µM): 0 at 0.5-30 µM %

Compound: c1ccc(CN=C(NCc2ccccc2)SCc2ccccc2)cc1 [Compound 13, S-Benzyl-N-benzyl-N'-benzylisothiocarbamide]
Potentiation of kainate-induced currents (%) (AMPA/KA receptors; at 0.5-30 µM): 0 at 0.5-30 µM %
Blockade of NMDA-induced currents (%) (NMDA receptors; at 0.5-30 µM): 0 at 0.5-30 µM %

Compound: NS(=O)(=O)c1cc2c(cc1Cl)NC(C1CC3C=CC1C3)NS2(=O)=O (stereo not shown) [Cyclothiazide, reference compound]
Potentiation of kainate-induced currents (%) (AMPA/KA receptors; at 1 µM): 20% at 1 µM
Blockade of NMDA-induced currents (%) (NMDA receptors; at 1-30 µM): 0 at 1-30 µM %

Compound: CC12CC3CC(C)(C1)CC(N)(C3)C2 [Memantine, reference compound]
Potentiation of kainate-induced currents (%) (AMPA/KA receptors; at 30 µM): 15% at 30 µM
Blockade of NMDA-induced currents (%) (NMDA receptors; at 17 µM): 50% at 17 µM

Compound: Nc1c2c(nc3ccccc13)CCCC2 [Tacrine, reference compound]
Potentiation of kainate-induced currents (%) (AMPA/KA receptors; at 0.5-30 µM): 0 at 0.5-30 µM %
Blockade of NMDA-induced currents (%) (NMDA receptors; at 0.5-30 µM): 0 at 0.5-30 µM %

The next lines start with the values.

Potentiation of kainate-induced currents (%) (AMPA/KA receptors; at 0.5-30 µM): 0 at 0.5-30 µM %
Blockade of NMDA-induced currents (%) (NMDA receptors; at 0.5-30 µM): 0 at 0.5-30 µM %
Compound: Cl.O=[N+]([O-])c1ccc(CSC(=NCc2ccccc2)NCc2ccccc2)cc1 [Compound 14, S-4-Nitrobenzyl-N-benzyl-N'-benzylisothiocarbamide hydrochloride]

Potentiation of kainate-induced currents (%) (AMPA/KA receptors; at 0.5-30 µM): 0 at 0.5-30 µM %
Blockade of NMDA-induced currents (%) (NMDA receptors; at 0.5-30 µM): 0 at 0.5-30 µM %
Compound: Br.O=C(O)c1ccc(CSC(=NCc2ccccc2)NCc2ccccc2)cc1 [Compound 15, S-4-Carboxybenzyl-N-benzyl-N'-benzylisothiocarbamide hydrobromide]

Potentiation of kainate-induced currents (%) (AMPA/KA receptors; at 0.5-30 µM): 0 at 0.5-30 µM %
Blockade of NMDA-induced currents (%) (NMDA receptors; at 0.5-30 µM): 0 at 0.5-30 µM %
Compound: Br.C=CCSC(=NCc1ccccc1)NCc1ccccc1 [Compound 16, S-Allyl-N-benzyl-N'-benzylisothiocarbamide hydrobromide]

Potentiation of kainate-induced currents (%) (AMPA/KA receptors; at 10 µM): 0% at 10 µM
Potentiation of kainate-induced currents (%) (AMPA/KA receptors; at 0.5-1.0 µM): 60-100% at 0.5-1.0 µM
Blockade of NMDA-induced currents (%) (NMDA receptors; at 0.5 µM): 30-50%
Blockade of NMDA-induced currents (%) (NMDA receptors; at 2 µM): 100%
Compound: Br.C1=CC(SC(=NCc2ccccc2)NCc2ccccc2)CCC1 (stereo not shown) [Compound 17, S-2-Cyclohexenyl-N-benzyl-N'-benzylisothiocarbamide hydrobromide]

increase in kainate-induced currents (AMPA/KA receptors; 20 µM, observed range (average given separately)): 8-12%
Potentiation of kainate-induced currents (%) (AMPA/KA receptors; at 20 µM (average), hydrobromide): 10% at 20 µM
Potentiation of kainate-induced currents (%) (AMPA/KA receptors; at 20 µM (average), listed as compound 18, hydrobromide): 10%
Washing out time that returns the amplitude of the responses to the control value (AMPA/KA receptors; kainate-induced currents, after 20 µM): 3 to 5 min
decrease in the NMDA-induced currents (NMDA receptors; 3 µM, observed range (average given separately)): 25-35%
Washing out time that returns the amplitude of the NMDA-induced currents to the control value (NMDA receptors; NMDA-induced currents, cerebral cortex neurons): 3 to 6 min
Blockade of NMDA-induced currents (%) (NMDA receptors; at 3 µM (average), hydrobromide): 30% at 3 µM,
Blockade of NMDA-induced currents (%) (NMDA receptors; at 3 µM (average), listed as compound 18, hydrobromide): 30%
Blockade of NMDA-induced currents (%) (NMDA receptors; at 10 µM, hydrobromide): 100% at 10 µM
Blockade of NMDA-induced currents (%) (NMDA receptors; at 10 µM, listed as compound 18, hydrobromide): 100%
Compound: Br.c1ccc(CCSC(=NCc2ccccc2)NCc2ccccc2)cc1 [Compound 18, S-2-Phenylethyl-N-benzyl-N'-benzylisothiocarbamide hydrobromide]

Potentiation of kainate-induced currents (%) (AMPA/KA receptors; at 0.5-30 µM): 0 at 0.5-30 µM %
Blockade of NMDA-induced currents (%) (NMDA receptors; at 0.5-30 µM): 0 at 0.5-30 µM %
Compound: Br.CCOC(=O)CCSC(=NCc1ccccc1)NCc1ccccc1 [Compound 19, S-2-Ethoxycarbonyl-ethyl-N-benzyl-N'-benzylisothiocarbamide hydrobromide]
